Assay results: the supplement of paper PMC5579334

Key:
HS-PSS [1] = experiment: drug sensitivity score (DSS, CellTiter-Glo viability, 72 h) (DSS (dimensionless)); higher = more sensitive; extreme values may be limits of the assay
How it was run: (§1)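 After seeding 750–1000 cells per well of MPNST cell lines or primary human Schwann cells into 384-well plates preprinted with each compound at five concentrations in 10-fold steps, plates were kept 72 h at 37 °C, 5% CO2. Viability was read as CellTiter-Glo ATP luminescence relative to vehicle and positive-control wells, with duplicates averaged where present. The data were fitted with four-parameter logistic models. Drug sensitivity score and relative IC50, censored at the top concentration, derive from the fits, and percent inhibition refers to the top concentration.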

HS-Sch-2 [2] = experiment: as above
How it was run: as §1

YST-1 [3] = experiment: as above
How it was run: as §1

HS-PSS [4] = experiment: drug sensitivity score (DSS, CellTox-Green cytotoxicity, 72 h) (DSS (dimensionless)); higher = more cytotoxic; extreme values may be limits of the assay
How it was run: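 For 72 h at 37 °C, MPNST cell lines and primary human Schwann cells were exposed in 384-well plates to five 10-fold compound dilutions. CellTox-Green, added before seeding at a final 1:1000 dilution, gave fluorescence from DNA released by disrupted cells. Signals were scaled to vehicle and positive-control wells, cultures failing plate quality control were left out, and four-parameter logistic fits were applied. Relative IC50 and drug sensitivity score were derived from the fits, with IC50 censored at the top concentration.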

HS-PSS [5] = experiment: % inhibition of CellTiter-Glo viability at highest tested concentration (72 h), relative to DMSO and benzethonium chloride controls; higher = more inhibition
How it was run: as §1

HS-Sch-2 [6] = experiment: as above
How it was run: as §1

YST-1 [7] = experiment: as above
How it was run: as §1

Compound	drug sensitivity score (HS-PSS [1])	drug sensitivity score (HS-Sch-2 [2])	drug sensitivity score (YST-1 [3])	drug sensitivity score (HS-PSS [4])	% inhibition (HS-PSS [5])	% inhibition (HS-Sch-2 [6])	% inhibition (YST-1 [7])
C[C@H]1Oc2cc(cnc2N)-c2c(nn(C)c2C#N)CN(C)C(=O)c2ccc(F)cc21 (max concentration tested 1000 nM)	12.3	0.53	0	0	53.9%	14.9%	3.35%
C[C@@H]1CN(CC(=O)Nc2ccc3c(c2)Cc2cccc(-c4cc(=O)cc(N5CCOCC5)o4)c2S3)C[C@H](C)O1 (max concentration tested 25000 nM)	1.79	8.7	1.74	0	45.7%	97.9%	41.4%
NCC(=O)Nc1ccc(-n2nc(C(F)(F)F)cc2-c2ccc3c(ccc4ccccc43)c2)cc1 (max concentration tested 25000 nM)	4.86	7.03	5.55	7.95	101%	101%	101%
CCCCCCCCCCCCCCCCCCOP(=O)([O-])OC1CC[N+](C)(C)CC1 [Perifosine] (max concentration tested 2500 nM)	0	0	0	0	0.4%	4.74%	-0.19%
CNc1nc(-c2ccc3c(N)n[nH]c3c2)cc(N2C[C@@H](C(=O)NC3CCCCC3)CC[C@H]2C)n1 (max concentration tested 10000 nM)	1.2	0.1	7.15	0	27.7%	14.3%	54%
Cn1ncc(Cl)c1-c1cc(C(=O)N[C@H](CN)Cc2ccc(F)c(F)c2)oc1Cl [Uprosertib] (max concentration tested 10000 nM)	0	0	3.04	0	9.97%	6.41%	21.9%
Cc1nn(C)c(COc2ccc(N3CCN(S(=O)(=O)N(C)C)CC3)cc2)c1-c1cccc2c(CCCOc3cccc4ccccc34)c(C(=O)O)n(CCN3CCOCC3)c12 (max concentration tested 50000 nM)	4.52	5.73	6.72	1.47	90.5%	101%	101%
OC(CC1c2ccccc2-c2cncn21)C1CCCCC1 (stereo not drawn) [NLG919] (max concentration tested 10000 nM)	0	0	0	0	7.55%	0.68%	10.1%
Cc1cc(C)c(CNC(=O)c2cc(-c3ccc(CN4CCOCC4)cc3)cc3c2cnn3C2CCCC2)c(=O)[nH]1 [EPZ-5687] (max concentration tested 10000 nM)	0	0	0	0	-1.01%	-5.4%	1.37%
